SMILES strings stand for the structures. Like-named read-outs stand apart in the source and are kept apart here. A value given as a limit tells only on which side of the number the result lay.

In assay [1] the target is cIAP2-BIR1 (Homo sapiens, UniProt Q13489). The assay can be described thus: Trp fluorescence binding assay on cIAP2-BIR1.
Procedure: (§1) The binding of FC2 derivatives to the BIR1 domains was assessed by in vitro fluorimetric assays.
(§2) The fluorescence intensity emitted by XIAP-BIR1 Trp73 or cIAP2-BIR1 Trp76 was measured by varying the concentration of the different ligands. The tests were performed with a spectral fluorimeter (Varian Cary Eclipse Fluorescence Spectrophotometer, Agilent Technologies), recording the fluorescence emission spectra between 300 and 400 nm (excitation 280 nm). XIAP-/ cIAP2-BIR1 protein samples were concentrated at 5 μM.
(§3) All the analyses were performed with GraFit version 5 (Erithacus Software Ltd., Horley, UK).
In assay [2] the target is XIAP-BIR1 (Homo sapiens, UniProt P98170). The experiment in a line: Trp fluorescence binding assay on XIAP-BIR1.
Procedure: as §1, §2, §3
Assay [3] relates to MDA-MB-231 cells. The experiment in a line: Cell viability assay (PrestoBlue) in MDA-MB-231, with or without TNF. The conditions noted are these: 48 h treatment. The assay is classed as cell-based, human. Here is the method: MDA-MB-231 cells (human breast adenocarcinoma cell line) were grown in standard conditions (37 °C, 5% CO2) in RPMI medium supplemented with 10% serum, 1 mg·mL^−1 penicillin, 100 μg·mL^−1 streptomycin and 2 mM l-glutamine. Cell viability was evaluated by using PrestoBlue^TM Cell Viability Reagent (Thermo Fisher Scientific, Rodano, Italy). Resazurin, the active nontoxic and non-fluorescent ingredient, is continuously converted in resorufin, a red fluorescent compound, in viable cells. Cells were seeded on black-wall, clear bottom 96-well microplates at a density of 50,000 cells/well. After 24 h, cells were treated with the FC2 derivatives from 1.5 μM to 100 μM (vehicle, DMSO) in the absence or presence of TNF at the concentration of 50 ng/mL. After 48 h, the fluorescence was determined using a fluorescence plate reader (Tristar2 S, Berthold Technologies, Bad Wildbad, Germany) equipped with 560 nm excitation and 585 nm emission filters. At least five replicates were performed for each condition. The EC50, was calculated plotting the percentage of cell survival against the compound concentration (A) and fitting the data with: % survival=Tmax−TminA/A+EC50+Tmin where Tmax and Tmin are the maximum and minimum effect induced by the compounds. Analysis was performed with IgorPro 8.04 software (Lake Oswego, OR, USA).

[4] abbreviates: Homo sapiens, MDA-MB-231, 48 h, MDA-MB-231, in combination with 50 ng/mL TNF, read-out: EC50 (+TNF).
Setting [5] is: Homo sapiens, MDA-MB-231, 48 h, MDA-MB-231, single agent, read-out: EC50.
Where [6] appears, read: read-out: Kd (cIAP2-BIR1), Trp fluorescence titration, 23 °C, pH 8.0.
The mark [7] stands for this setting: read-out: Kd (XIAP-BIR1), Trp fluorescence titration, 23 °C, pH 8.0.
Setting [8] is: Homo sapiens, MDA-MB-231, in combination with 50 ng/mL TNF, read-out: EC50 (+TNF).
Setting [9] is: Homo sapiens, MDA-MB-231, single agent, read-out: EC50.

XIAP-BIR1, sequence (P98170 10-99 limits assumed): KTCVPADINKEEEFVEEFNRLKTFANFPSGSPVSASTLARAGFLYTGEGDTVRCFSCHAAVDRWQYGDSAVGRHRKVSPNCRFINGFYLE
cIAP2-BIR1, sequence (Q13489 26-99 limits assumed): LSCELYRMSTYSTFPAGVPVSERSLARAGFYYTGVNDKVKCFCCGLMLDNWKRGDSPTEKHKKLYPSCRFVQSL

As a reminder, the Kd is the constant that tells how readily two partners part at equilibrium. By EC50 is commonly meant the concentration giving half of the maximal effect. With `O=C1CCCC2=C1C(c1ccc(O)c(O)c1)Nc1ccc(C(=O)c3ccccc3)cc1N2` (centres unmarked) [4p], the Kd in assay [1] worked out at 26.9 ± 4.3 µM; in assay [2], 15.9 ± 5.2 µM. In addition, the EC50 in assay [3] (setting [4]) is 9.5 ± 4.73 µM; in assay [3] (setting [5]) it was 6.92 ± 2.43 µM.
Regarding `Cc1ccc(C2Nc3ccc(C(=O)c4ccccc4)cc3NC3=C2C(=O)CCC3)o1` (centres unmarked) [4c, 7-benzoyl-11-(5-methylfuran-2-yl)-2,3,4,5,10,11-hexahydro-1H-dibenzo[b,e][1,4]diazepin-1-one], the Kd in assay [1] and in assay [2] was above 50 µM throughout. Moreover, the EC50 came out at 45.3 ± 3.75 µM in assay [3] (setting [4]); 65 µM in assay [3] (setting [5]); 65.1 ± 2.43 µM in assay [3] (MDA-MB-231, single agent, read-out: EC50).
Take `COc1cccc(C2Nc3ccc(C(=O)c4ccccc4)cc3NC3=C2C(=O)CCC3)c1` (centres unmarked) [4k]: the Kd in assay [1] (setting [6]) and in assay [2] (setting [7]) was above 50 µM throughout. Besides, the EC50 came out at 13 ± 4.15 µM in assay [3] (setting [4]) and 10.3 ± 4.63 µM in assay [3] (setting [5]).
Turning to `COc1cc(C2Nc3ccc(C(=O)c4ccccc4)cc3NC3=C2C(=O)CCC3)cc([N+](=O)[O-])c1O` (centres unmarked) [4v], the values for the Kd in assay [1] and in assay [2] were 38 ± 2.78 µM and 46.4 ± 5.31 µM, respectively. Also, the EC50 in assay [3] (setting [8]) was 26.8 ± 12.5 µM; in assay [3] (setting [9]) it was 31.4 ± 11.4 µM.
For `Cc1ccc(C2Nc3ccc(C(=O)c4ccccc4)cc3NC3=C2C(=O)CCC3)cc1` (centres unmarked) [4e, 7-benzoyl-11-(p-tolyl)-2,3,4,5,10,11-hexahydro-1H-dibenzo[b,e][1,4]diazepin-1-one], the results for the Kd in assay [1] and in assay [2] were 27.6 ± 7.3 µM and above 50 µM, respectively. The figures for the EC50 in assay [3] (setting [4]) and in assay [3] (setting [5]) were 47.9 ± 9.7 µM and 38.9 ± 7.55 µM, respectively.
`COc1ccc(C2Nc3ccc(C(=O)c4ccccc4)cc3NC3=C2C(=O)CCC3)cc1` (centres unmarked) [4g]: in assay [2], the Kd worked out at 18 ± 5.4 µM. For the same compound, the EC50 in assay [3] (setting [4]) is 36.3 ± 10.4 µM; in assay [3] (setting [5]), 67.2 ± 7.6 µM.
Regarding `O=C1CCCC2=C1C(c1c[nH]c3ccccc13)Nc1ccc(C(=O)c3ccccc3)cc1N2` (centres unmarked) [FC2, 7-benzoyl-11-(1H-indol-3-yl)-2,3,4,5,10,11-hexahydro-1H-dibenzo[b,e][1,4]diazepin-1-one], the EC50 is 9.08 ± 1.85 µM in assay [3] (setting [8]) and 11.4 ± 2.08 µM in assay [3] (setting [9]).
With `O=C1CCCC2=C1C(c1ccc(Cl)cc1)Nc1ccc(C(=O)c3ccccc3)cc1N2` (centres unmarked) [4i], the Kd in assay [1] and in assay [2] was above 50 µM each time. Besides, the EC50 in assay [3] (setting [4]) is 22.2 ± 6.67 µM; in assay [3] (setting [5]), 25.9 ± 7.03 µM.
With `Nc1cccc(C2Nc3ccc(C(=O)c4ccccc4)cc3NC3=C2C(=O)CCC3)c1` (centres unmarked) [4n], the Kd was 26.5 ± 1.07 µM in assay [1] and 38.1 ± 1.68 µM in assay [2]. Besides, the EC50 entry in assay [3] (MDA-MB-231, single agent) is reported as “loss of activity”.
`COc1cccc(C2Nc3ccc(C(=O)c4ccccc4)cc3NC3=C2C(=O)CCC3)c1O` (centres unmarked) [4t]: the Kd in assay [1] and in assay [2] was above 50 µM throughout. Also, the EC50 result in assay [3] (MDA-MB-231, single agent) is on record as “without activity”.
In the case of `COc1ccc(C2Nc3ccc(C(=O)c4ccccc4)cc3NC3=C2C(=O)CCC3)cc1OC` (centres unmarked) [4o], the Kd turned out to be 12 ± 2.4 µM in assay [1] and 7.5 ± 2.9 µM in assay [2]. Besides, the concentration for a half-maximal effect (EC50) in assay [3] (setting [4]) was 15.4 ± 6.86 µM; in assay [3] (setting [5]), 13.5 ± 4.67 µM.
In the case of `O=C1CCCC2=C1C(c1ccccc1)Nc1ccc(C(=O)c3ccccc3)cc1N2` (centres unmarked) [4d, 7-benzoyl-11-phenyl-2,3,4,5,10,11-hexahydro-1H-dibenzo[b,e][1,4]diazepin-1-one], the Kd came to 21.9 ± 6.2 µM in assay [1] and 4.4 ± 2.2 µM in assay [2]. For the same compound, the EC50 in assay [3] (setting [4]) was 69.2 ± 8.1 µM; in assay [3] (setting [5]), 19.6 ± 4.23 µM.
In the case of `COc1ccc(C2Nc3ccc(C(=O)c4ccccc4)cc3NC3=C2C(=O)CCC3)cc1O` (centres unmarked) [4s], the Kd in assay [1] and in assay [2] was above 50 µM in each case. Besides, the half-maximal effective concentration (EC50) was 14.6 ± 1.74 µM in assay [3] (setting [8]) and 15.2 ± 3.63 µM in assay [3] (setting [9]).
With `O=C1CCCC2=C1C(c1ccc(C(F)(F)F)cc1)Nc1ccc(C(=O)c3ccccc3)cc1N2` (centres unmarked) [4h], the Kd in assay [1] turned out to be 43.4 ± 13.9 µM; in assay [2] it was 14.9 ± 3.8 µM. Also, the EC50 in assay [3] (setting [4]) came to 48.8 ± 5.72 µM; in assay [3] (setting [5]), 22.3 ± 8.67 µM.
Regarding `O=C1CCCC2=C1C(c1cccc(O)c1)Nc1ccc(C(=O)c3ccccc3)cc1N2` (centres unmarked) [4l], the Kd in assay [1] stood at 38.6 ± 3.56 µM; in assay [2] it was 22 ± 1.18 µM. For the same compound, the values for the EC50 in assay [3] (setting [4]) and in assay [3] (setting [5]) were 16.1 ± 3.7 µM and 18.6 ± 2.56 µM, respectively.
As for `O=C1CCCC2=C1C(c1cccc([N+](=O)[O-])c1)Nc1ccc(C(=O)c3ccccc3)cc1N2` (centres unmarked) [4m], the Kd in assay [1] is 20.5 ± 4 µM. The results for the concentration for a half-maximal effect (EC50) in assay [3] (setting [8]) and in assay [3] (setting [9]) were 3.82 ± 1.41 µM and 5.54 ± 1.03 µM, respectively.
With `O=C1CCCC2=C1C(c1ccc3c(c1)OC(F)(F)O3)Nc1ccc(C(=O)c3ccccc3)cc1N2` (centres unmarked) [4q], the Kd stood at 16.4 ± 2.9 µM in assay [1] and 41.8 ± 11.7 µM in assay [2]. Also, the concentration for a half-maximal effect (EC50) is 14 ± 2.4 µM in assay [3] (setting [8]) and 14.7 ± 4.98 µM in assay [3] (setting [9]).
Consider `O=C1CCCC2=C1C(c1cccs1)Nc1ccc(C(=O)c3ccccc3)cc1N2` (centres unmarked) [4b, 7-benzoyl-11-(thiophen-2-yl)-2,3,4,5,10,11-hexahydro-1H-dibenzo[b,e][1,4]diazepin-1-one], for which the Kd in assay [1] amounted to 46.3 ± 24.8 µM; in assay [2], 30 ± 7.47 µM. For the same compound, the EC50 in assay [3] (setting [4]) was determined as 9.2 ± 5.75 µM; in assay [3] (setting [5]), 21.9 ± 8.17 µM.
On the same counts, the results for `CC1(C)CC(=O)C2=C(C1)Nc1cc(C(=O)c3ccccc3)ccc1NC2c1c[nH]c2ccccc12` (centres unmarked) [4a, 7-benzoyl-11-(1H-indol-3-yl)-3,3-dimethyl-2,3,4,5,10,11-hexahydro-1H-dibenzo[b,e][1,4]diazepin-1-one] are 1.3 ± 0.7 µM, 6.8 ± 1.3 µM, 16.9 ± 7.14 µM and 42.8 ± 10.1 µM.
`COc1cc(C2Nc3ccc(C(=O)c4ccccc4)cc3NC3=C2C(=O)CCC3)ccc1O` (centres unmarked) [4r]: the Kd is 46 ± 8.33 µM in assay [1] and 33.1 ± 1.4 µM in assay [2]. The values for the EC50 in assay [3] (setting [8]) and in assay [3] (setting [9]) were 12.8 ± 1.9 µM and 7.49 ± 1.65 µM, respectively.
For `O=C1CCCC2=C1C(c1ccc(O)cc1)Nc1ccc(C(=O)c3ccccc3)cc1N2` (centres unmarked) [4j], the Kd came to 27.6 ± 3.16 µM in assay [1] (setting [6]) and 7.26 ± 0.98 µM in assay [2] (setting [7]). Besides, the EC50 stood at 59.7 ± 14.8 µM in assay [3] (setting [4]) and 48.2 ± 15.1 µM in assay [3] (setting [5]).
On to `O=C1CCCC2=C1C(c1ccc(O)c([N+](=O)[O-])c1)Nc1ccc(C(=O)c3ccccc3)cc1N2` (centres unmarked) [4u], for which the Kd in assay [1] (setting [6]) was above 50 µM; in assay [2] (setting [7]), 37.3 ± 4.45 µM. Also, the EC50 in assay [3] (setting [8]) turned out to be 9.53 ± 3.61 µM; in assay [3] (setting [9]), 17 ± 5.4 µM.

(Values after paper PMC9823934, “New Class of Benzodiazepinone Derivatives as Pro-Death Agents Targeting BIR Domains in Cancer Cells” (Molecules, 2023).)
